# From patent publication US9416162B2, “Peptides having reduced toxicity that stimulate cholesterol efflux” (The Regents of the University of California, priority 2013, dated 2016)
# Non-standard residues stand in square brackets, D forms with d. Residues, ends and D or L forms follow the SMILES beside them. No end group written: not given here. Cit = NC(=O)NCCC[C@H](N)C(=O)O
# Legend:
# C57Bl/6 mice = assay: Safety and TG elevating effects after IP injection in C57Bl/6 mice (plasma CPK, ALT, AST, lipids); assay type: in vivo; settings: for muscle toxicity (plasma CPK activity) / cytotoxic/toxic response (plasma CPK, ALT, AST): plasma 4 h after injection
# Procedure: The high-dose cytotoxic response of ATI-5261 observed in rat, rabbit and cynomolgus monkey is additionally recapitulated in mice (FIG. 4). Male chow-fed C57bl/6 mice were injected intraperitonelly (IP) with 30 or 300 mg/kg of lipid-fee ATI-5261. Blood was collected via the retro-orbital plexus 4 h after peptide injection and plasma subsequently obtained for measurement of CPK (Panel A) and ALT and AST activities (Panel B, ALT left bars; AST, right bars). Values are means±SD, n=4 mice per group.
# This example illustrates that aromatic phenylalanine residues associated with the non-polar surface of ATI-5261 contributed to the majority of the peptide toxicity (FIG. 5). […] Blood was collected via retro-orbital plexus 4 h after injection for isolation of plasma. Levels of plasma CPK (Panel A), ALT (panel B) and AST (Panel C) were determined as described in FIG. 1. Values are means±SD, n=4 mice per group.
# All values (mg/dl) are means±SD, n=4, determined at 4 and 6 h post treatment with peptide.
# ABCA1 [1] = biological target: T1, ABCA1 (Mus musculus, UniProt P41233); assay: ABCA1-dependent [3H]cholesterol efflux from J774 macrophages with and without cAMP; assay type: cell-based; parameters: ABCA1-dependent cholesterol efflux: dose or concentration left out as unconfirmed; settings: for ABCA1-dependent cholesterol efflux: J774 with/without cAMP, acceptors lipid-free, 4 h
# T1 construct: treated (18 h) with a cAMP analog to induce ABCA1 protein expression; endogenous in cells; host or cells: J774 macrophages
# T1 sequence (P41233 whole entry): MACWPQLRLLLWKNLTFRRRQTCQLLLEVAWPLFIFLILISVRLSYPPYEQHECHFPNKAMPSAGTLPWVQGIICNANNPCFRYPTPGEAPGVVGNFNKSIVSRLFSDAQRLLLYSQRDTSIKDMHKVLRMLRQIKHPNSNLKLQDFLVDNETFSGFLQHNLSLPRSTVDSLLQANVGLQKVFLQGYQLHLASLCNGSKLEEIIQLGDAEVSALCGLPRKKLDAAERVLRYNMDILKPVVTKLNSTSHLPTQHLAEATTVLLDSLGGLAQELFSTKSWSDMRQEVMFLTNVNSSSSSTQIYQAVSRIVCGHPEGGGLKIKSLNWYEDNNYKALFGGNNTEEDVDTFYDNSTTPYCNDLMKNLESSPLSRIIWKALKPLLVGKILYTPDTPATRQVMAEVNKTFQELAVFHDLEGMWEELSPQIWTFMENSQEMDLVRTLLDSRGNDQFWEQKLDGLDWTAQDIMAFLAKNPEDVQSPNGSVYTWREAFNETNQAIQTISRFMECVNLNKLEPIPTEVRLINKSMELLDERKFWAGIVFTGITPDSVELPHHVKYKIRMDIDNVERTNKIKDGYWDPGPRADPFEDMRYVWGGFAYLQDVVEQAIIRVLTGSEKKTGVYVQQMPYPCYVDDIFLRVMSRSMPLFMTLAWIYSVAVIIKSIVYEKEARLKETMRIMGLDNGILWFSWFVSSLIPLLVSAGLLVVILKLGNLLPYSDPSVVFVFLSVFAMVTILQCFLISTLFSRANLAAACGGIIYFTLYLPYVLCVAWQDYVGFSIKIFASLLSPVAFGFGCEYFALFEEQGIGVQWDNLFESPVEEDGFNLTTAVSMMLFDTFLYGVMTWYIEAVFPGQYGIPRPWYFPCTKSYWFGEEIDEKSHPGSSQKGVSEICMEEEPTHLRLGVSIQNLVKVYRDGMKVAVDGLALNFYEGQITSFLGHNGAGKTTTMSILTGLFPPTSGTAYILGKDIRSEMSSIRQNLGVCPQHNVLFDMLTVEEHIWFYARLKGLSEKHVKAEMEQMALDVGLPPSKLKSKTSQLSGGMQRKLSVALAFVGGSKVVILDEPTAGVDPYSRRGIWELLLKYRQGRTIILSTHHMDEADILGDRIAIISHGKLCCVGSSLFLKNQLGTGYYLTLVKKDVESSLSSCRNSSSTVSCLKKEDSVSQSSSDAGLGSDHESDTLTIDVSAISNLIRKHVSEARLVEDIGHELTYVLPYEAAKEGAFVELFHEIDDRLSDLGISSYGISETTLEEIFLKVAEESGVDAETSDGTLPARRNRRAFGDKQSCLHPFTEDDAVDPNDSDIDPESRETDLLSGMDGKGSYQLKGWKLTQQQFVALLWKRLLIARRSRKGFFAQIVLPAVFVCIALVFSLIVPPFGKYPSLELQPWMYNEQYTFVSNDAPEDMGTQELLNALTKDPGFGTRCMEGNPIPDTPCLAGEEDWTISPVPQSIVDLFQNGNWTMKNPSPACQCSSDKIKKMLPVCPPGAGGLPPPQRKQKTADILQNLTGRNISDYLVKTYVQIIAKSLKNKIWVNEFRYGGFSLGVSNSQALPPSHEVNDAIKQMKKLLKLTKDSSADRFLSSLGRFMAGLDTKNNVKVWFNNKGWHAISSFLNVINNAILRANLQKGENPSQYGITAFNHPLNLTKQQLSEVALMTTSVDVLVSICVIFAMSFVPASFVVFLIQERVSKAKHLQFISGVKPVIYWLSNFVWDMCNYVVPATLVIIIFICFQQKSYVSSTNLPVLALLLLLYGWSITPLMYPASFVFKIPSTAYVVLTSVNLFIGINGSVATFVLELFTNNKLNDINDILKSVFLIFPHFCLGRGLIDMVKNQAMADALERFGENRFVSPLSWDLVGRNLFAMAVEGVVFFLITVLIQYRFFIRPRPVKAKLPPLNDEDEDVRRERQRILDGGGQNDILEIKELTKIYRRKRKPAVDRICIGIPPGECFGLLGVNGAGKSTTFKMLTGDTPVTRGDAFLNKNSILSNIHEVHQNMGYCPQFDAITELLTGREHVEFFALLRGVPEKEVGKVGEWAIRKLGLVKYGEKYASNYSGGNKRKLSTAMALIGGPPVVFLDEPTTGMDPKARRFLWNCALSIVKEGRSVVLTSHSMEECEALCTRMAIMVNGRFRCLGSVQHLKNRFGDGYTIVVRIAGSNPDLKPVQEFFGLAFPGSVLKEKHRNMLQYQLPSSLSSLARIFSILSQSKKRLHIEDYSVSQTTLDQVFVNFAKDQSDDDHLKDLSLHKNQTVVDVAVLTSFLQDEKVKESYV
# [2] = Scaled Parameters = (Raw Parameters + 2.061)/4.484; cited from earlier work
# ABCA1 [3] = biological target: T1, ABCA1; assay: ABCA1-dependent [3H]cholesterol efflux from J774 macrophages with and without cAMP; assay type: cell-based; settings: cAMP treated J774 cells; for efficiency of stimulating cholesterol efflux (concentration dependence): dose response; for Km for cholesterol efflux / peptide concentration at saturation in cholesterol efflux: increasing concentration of peptides, 4 h
# Description: Suitable cholesterol efflux assays are described in, e.g., Bielicki, J. K and Oda, M. N., Biochemistry, 41:2089-2096 (2002); Jia et al., Biochem. Biophys. Res. Common., 297:206-213 (2002). In some embodiments, a polypeptide known to mediate cholesterol efflux (e.g., helix 9/10 of Apo A-I) is used to screen for additional mediators of cholesterol efflux in a cell based assay. For example, cell lines in which cholesterol efflux can be enhanced using a cAMP analog that up-regulates ABCA1 protein expression (e.g., J774 macrophages) can conveniently be used to assess the ability of a polypeptide of the present invention to mediate cholesterol efflux. The cells are incubated with labeled cholesterol (e.g., [^3H]cholesterol) under conditions appropriate for cholesterol uptake by the cells. Thus, cAMP or cAMP analogs (e.g., CPT-cAMP) are incubated with the cells for a suitable time before the initiation of cellular cholesterol efflux, i.e., prior to contacting the cells with a test polypeptide. Measurement of labeled cholesterol appearing in the medium is used to determine the cholesterol efflux mediating activity of the test polypeptide.
# Aliphatic analogs of ATI-5261 lacking phenylalanine residues retained potent ABCA1 selective cholesterol efflux activity (FIG. 7). J774 macrophages were labeled (48 h) with [^3H]cholesterol and treated (18 h) with a cAMP analog to induce ABCA1 protein expression; cells incubated in the absence of cAMP (left bars) served as controls. […] Peptides were used at a concentration of 30 μg/ml, which was maximal for promoting cholesterol efflux activity. Panel B—Dependence of cholesterol efflux on the concentration of peptides. […] Results are expressed as the difference in cholesterol efflux (%/4 h) observed using cAMP treated vs. non-treated J774 cells. Values are means±SD, n=3.
# [4] = male chow-fed C57Bl/6 mice, IP 300 mg/kg
compound,measurement,setting,value
EVQSKLEEWLAALQELAEELLARLKS [T5766-3],muscle toxicity (plasma CPK activity),C57Bl/6 mice; [4],greatly reduced
Y26 form of CS6253: CS6253 with a S26→Y substitution to facilitate labeling with 125I (SEQ ID NO:87) (EV[Cit]SKLEEWLAAL[Cit]ELAEELLARLKY),ABCA1-dependent cholesterol efflux activity,"ABCA1 [1]; J774 macrophages with/without cAMP, peptide 10 μg/ml",mediating high-levels of cholesterol efflux
N[C@@H](CCC(=O)O)C(=O)O [Glutamate],Hydrophobicity (scaled computational log(P)),[2],0.043
"T5505-9: ATI-5261 analog with L24A; W9L substitutions (EVRSKLEELLAALRELAEELLARAKS; synthetic amphipathic alpha-helix cholesterol efflux peptide T5505-9, LeuATI-5261 analog)",TG elevating effects (plasma TG),C57Bl/6 mice; [4],markedly reduced
same,"plasma ALT and/or AST (general, hepatic toxicity)",C57Bl/6 mice; [4],markedly reduced
same,muscle toxicity (plasma CPK activity),C57Bl/6 mice; [4],markedly reduced
same,efficiency of stimulating cholesterol efflux (concentration dependence),ABCA1 [3],high efficiency
same,Km for cholesterol efflux,ABCA1 [3],0.58 µg/mL
same,peptide concentration at saturation in cholesterol efflux,ABCA1 [3],~3 µg/mL
NC(=O)C[C@H](N)C(=O)O [Asparagine],Hydrophobicity (scaled computational log(P)),[2],0.236
EVRSKLQEWFAAFREFAQEFLARLKS [T5554-1],"cytotoxic/toxic response (plasma CPK, ALT, AST)",C57Bl/6 mice; [4],large increase in the toxic response
C[C@@H](O)[C@H](N)C(=O)O [Threonine],Hydrophobicity (scaled computational log(P)),[2],0.450
EVRSKLEEWFAAFREFAEEFLARL [T5766-5],"cytotoxic/toxic response (plasma CPK, ALT, AST)",C57Bl/6 mice; [4],reduce the toxic responses
same,muscle toxicity (plasma CPK activity),C57Bl/6 mice; [4],greatly reduced muscle toxicity
EVRSKLEEWFAAFREFAEEFLARLNS [T5594-4],muscle toxicity (plasma CPK activity),C57Bl/6 mice; [4],greatly reduced muscle toxicity
NCC(=O)O [Glycine],Hydrophobicity (scaled computational log(P)),[2],0.501
EVNSKLEEWLAALNELAEELLARLKS [T5766-4],muscle toxicity (plasma CPK activity),C57Bl/6 mice; [4],greatly reduced
EVRSKLEEWLAALRELAEELAARLKS [T4883-7],TG elevating effects (plasma TG),C57Bl/6 mice; [4],further reduced
same,"cytotoxic/toxic response (plasma CPK, ALT, AST)",C57Bl/6 mice; [4],further reduced cytotoxic response
same,muscle toxicity (plasma CPK activity),C57Bl/6 mice; [4],eliminate the residual muscle toxicity
T6275-5: citrulline form of LeuATI-5261 with single citrulline14→L substitution (EV[Cit]SKLEEWLAALLELAEELLARLKS),efficiency of stimulating cholesterol efflux (concentration dependence),ABCA1 [3],highly efficient manner
same,Km for cholesterol efflux,ABCA1 [3],low Km
same,peptide concentration at saturation in cholesterol efflux,ABCA1 [3],3 µg/mL
EARSKAEEWLAALLELAEELLARAKS [T5211-2],"cytotoxic/toxic response (plasma CPK, ALT, AST)",C57Bl/6 mice; [4],little or no toxic responses
EVRSKLEEWLAALRELAEELLARLKS [T5055-13],"plasma TG, total and unesterified (free) cholesterol (FC)","C57Bl/6 mice; C57Bl/6 mice, 300 mg/kg, 4 and 6 h post treatment",greatly attenuated
same,muscle toxicity (plasma CPK activity),C57Bl/6 mice; [4],residual toxicity
EVRSKLEEWIAAIREIAEEILARLKS [T6991-1],muscle toxicity (plasma CPK activity),C57Bl/6 mice; [4],little or no cytotoxic properties
"apoA-I: Apolipoprotein A-I, native apolipoprotein used lipid-free as cholesterol efflux acceptor",ABCA1-dependent cholesterol efflux,ABCA1 [1],High-levels of cholesterol efflux
CC[C@H](C)[C@H](N)C(=O)O [Isoleucine],Hydrophobicity (scaled computational log(P)),[2],0.943
"CC[C@H](C)[C@H](NC(=O)[C@H](C)NC(=O)[C@H](C)NC(=O)[C@@H](NC(=O)[C@H](Cc1c[nH]c2ccccc12)NC(=O)[C@H](CCC(=O)O)NC(=O)[C@H](CCC(=O)O)NC(=O)[C@H](CC(C)C)NC(=O)[C@H](CCCCN)NC(=O)[C@H](CO)NC(=O)[C@H](CCCNC(N)=O)NC(=O)[C@@H](NC(=O)[C@@H](N)CCC(=O)O)C(C)C)[C@@H](C)CC)C(=O)N[C@@H](CCCNC(N)=O)C(=O)N[C@@H](CCC(=O)O)C(=O)N[C@H](C(=O)N[C@@H](C)C(=O)N[C@@H](CCC(=O)O)C(=O)N[C@@H](CCC(=O)O)C(=O)N[C@H](C(=O)N[C@@H](CC(C)C)C(=O)N[C@@H](C)C(=O)N[C@@H](CCCNC(=N)N)C(=O)N[C@@H](CC(C)C)C(=O)N[C@@H](CCCCN)C(=O)N[C@@H](CO)C(=O)O)[C@@H](C)CC)[C@@H](C)CC [T6991-2, EVC*SKLEEWIAAIC*EIAEEILARLKS (SEQ ID NO:3)] (H-EV[Cit]SKLEEWIAAI[Cit]EIAEEILARLKS-OH)",muscle toxicity (plasma CPK activity),C57Bl/6 mice; [4],little or no cytotoxic properties
CSCC[C@H](N)C(=O)O [Methionine],Hydrophobicity (scaled computational log(P)),[2],0.738
T5554-4: E→Q analog carrying the favorable citrulline substitutions (EV[Cit]SKLQEWFAAFREFAEEFLARLKS),"cytotoxic/toxic response (plasma CPK, ALT, AST)",C57Bl/6 mice; [4],"retained strong toxic (CPK, ALT, and AST) and TG elevating responses"
"T5554-5: E→Q analog carrying the favorable citrulline substitutions, net-charge −1 (EV[Cit]SKLQEWFAAF[Cit]EFAQEFLARLKS)","cytotoxic/toxic response (plasma CPK, ALT, AST)",C57Bl/6 mice; [4],"retained strong toxic (CPK, ALT, and AST) and TG elevating responses"
"apoE: Apolipoprotein E, native apolipoprotein used lipid-free as cholesterol efflux acceptor",ABCA1-dependent cholesterol efflux,ABCA1 [1],High-levels of cholesterol efflux
C[C@H](N)C(=O)O [Alanine],Hydrophobicity (scaled computational log(P)),[2],0.616
N[C@@H](Cc1ccccc1)C(=O)O [Phenylalanine],Hydrophobicity (scaled computational log(P)),[2],1.00
N[C@@H](Cc1ccc(O)cc1)C(=O)O [Tyrosine],Hydrophobicity (scaled computational log(P)),[2],0.880
NCCCC[C@H](N)C(=O)O [Lysine],Hydrophobicity (scaled computational log(P)),[2],0.283
EVKSKLEEWFAAFKEFAEEFLAKLKS [T5594-5],"cytotoxic/toxic response (plasma CPK, ALT, AST)",C57Bl/6 mice; [4],displayed cytotoxic and TG elevating activity
N[C@@H](Cc1c[nH]cn1)C(=O)O [Histidine],Hydrophobicity (scaled computational log(P)),[2],0.165
EARSKAEEWLAALRELAEELLARAKS [T5505-12],TG elevating effects (plasma TG),C57Bl/6 mice; [4],greatly ablated
same,"cytotoxic/toxic response (plasma CPK, ALT, AST)",C57Bl/6 mice; [4],low toxicity
EVRSKLEEWLAALRELAEELLARAKS [T4883-6],TG elevating effects (plasma TG),C57Bl/6 mice; [4],further reduced
same,"cytotoxic/toxic response (plasma CPK, ALT, AST)",C57Bl/6 mice; [4],further reduced cytotoxic response
same,muscle toxicity (plasma CPK activity),C57Bl/6 mice; [4],eliminate the residual muscle toxicity
N=C(N)NCCC[C@H](N)C(=O)O [Arginine],Hydrophobicity (scaled computational log(P)),[2],0.000
N[C@@H](Cc1c[nH]c2ccccc12)C(=O)O [Tryptophan],Hydrophobicity (scaled computational log(P)),[2],0.878
O=C(O)[C@@H]1CCCN1 [Proline],Hydrophobicity (scaled computational log(P)),[2],0.711
CC(C)[C@H](N)C(=O)O [Valine],Hydrophobicity (scaled computational log(P)),[2],0.825
